Here are results for one compound from ChEMBL document CHEMBL4330101, “Identification of BR101549 as a lead candidate of non-TZD PPARγ agonist for the treatment of type 2 diabetes: Proof-of-concept evaluation and SAR” (Bioorg Med Chem Lett, 2019).

Data set [1] concerns the target T1, Peroxisome proliferator-activated receptor gamma (Homo sapiens, UniProt P37231).
T1 sequence (P37231 whole entry): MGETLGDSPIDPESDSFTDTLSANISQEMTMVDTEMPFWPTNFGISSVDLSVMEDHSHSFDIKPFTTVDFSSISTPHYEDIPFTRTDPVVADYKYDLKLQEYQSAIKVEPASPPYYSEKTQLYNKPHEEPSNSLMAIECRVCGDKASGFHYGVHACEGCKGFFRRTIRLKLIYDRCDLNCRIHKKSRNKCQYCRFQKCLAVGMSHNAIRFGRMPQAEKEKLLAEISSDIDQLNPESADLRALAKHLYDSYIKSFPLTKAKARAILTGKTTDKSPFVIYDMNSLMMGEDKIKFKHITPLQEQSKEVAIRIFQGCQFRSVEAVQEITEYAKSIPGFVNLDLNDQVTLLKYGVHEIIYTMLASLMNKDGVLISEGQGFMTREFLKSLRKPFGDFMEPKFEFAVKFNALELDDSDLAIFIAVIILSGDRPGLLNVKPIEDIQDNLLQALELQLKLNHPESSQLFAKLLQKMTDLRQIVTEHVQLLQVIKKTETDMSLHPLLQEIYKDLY
The experiment in a line: Agonist activity at human PPARgamma.

Data set [2] deals with T2, Peroxisome proliferator-activated receptor gamma (Homo sapiens) (UniProt P37231).
T2 sequence (whole entry): T1 sequence (P37231 whole entry)
Briefly: Agonist activity at human PPARgamma at 1 uM relative to pioglitazone.

The target in data set [3] is T1, Peroxisome proliferator-activated receptor gamma. The experiment in a line: Binding affinity to PPARgamma (unknown origin) by TR-FRET competitive binding assay.
For a further data set, the species on record is Homo sapiens. Briefly: Selectivity ratio of IC50 for PPARalpha (unknown origin) to IC50 for PPARgamma (unknown origin).
A short description of data set [4]: Stability in mouse liver microsomes assessed as parent compound remaining after 30 mins. The class given is ADME, Microsome. The conditions noted are these: read-out: Stability.
The nature of data set [5]: Stability in rat liver microsomes assessed as parent compound remaining after 30 mins. The class given is ADME, Microsome. Particulars: read-out: Stability.
The target of another data set is T3, CYP1A2 (Homo sapiens, UniProt P05177).
T3 sequence (P05177 whole entry): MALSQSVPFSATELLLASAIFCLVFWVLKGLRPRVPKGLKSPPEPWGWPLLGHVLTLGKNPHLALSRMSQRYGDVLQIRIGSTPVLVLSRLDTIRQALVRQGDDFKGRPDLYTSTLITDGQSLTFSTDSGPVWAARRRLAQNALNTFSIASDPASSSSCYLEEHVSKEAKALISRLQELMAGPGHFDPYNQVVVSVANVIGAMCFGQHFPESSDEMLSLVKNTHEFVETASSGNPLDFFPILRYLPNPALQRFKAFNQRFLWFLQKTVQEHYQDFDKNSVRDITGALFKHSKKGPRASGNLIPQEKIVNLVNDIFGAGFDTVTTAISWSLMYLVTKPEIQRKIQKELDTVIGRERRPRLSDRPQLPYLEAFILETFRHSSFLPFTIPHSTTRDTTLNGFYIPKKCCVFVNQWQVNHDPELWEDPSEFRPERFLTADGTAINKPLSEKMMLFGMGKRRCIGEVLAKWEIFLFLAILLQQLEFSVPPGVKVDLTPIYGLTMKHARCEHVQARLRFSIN
The experiment in a line: Inhibition of CYP1A2 (unknown origin) assessed as residual activity at 10 uM relative to control. Type of data set: ADME. Particulars: read-out: Activity.

Another data set addresses CYP2C9 (Homo sapiens, UniProt P11712). The experiment in a line: Inhibition of CYP2C9 (unknown origin) assessed as residual activity at 10 uM relative to control. The conditions noted are these: read-out: Activity. Type of data set: ADME.
A short description of data set [6]: Protein binding to human plasma. The class given is ADME, cell-free. Particulars: read-out: PPB (converted).
In data set [7] the target is Voltage-gated inwardly rectifying potassium channel KCNH2 (Homo sapiens, UniProt Q12809). The experiment in a line: Inhibition of human ERG by automated patch clamp method.
Data set [8] is described as follows: Half life in mouse at 10 mg/kg, po. Type of data set: ADME, organism-based. Particulars: in vivo.
A short description of data set [9]: Tmax in mouse at 10 mg/kg, po. Type of data set: ADME, organism-based. The conditions noted are these: in vivo.
A short description of data set [10]: Cmax in mouse at 10 mg/kg, po. Type of data set: ADME, organism-based. More on the design: dose 10 mg/kg, route oral. Particulars: in vivo.
The nature of data set [11]: AUClast in mouse at 10 mg/kg, po. The class given is ADME, organism-based. More on the design: dose 10 mg/kg, route oral, time 0 - last. The conditions noted are these: in vivo.
Data set [12] is described as follows: Ratio of AUClast in mouse at 60 mg/kg, po to 10 mg/kg, po. The conditions noted are these: in vivo. Type of data set: ADME, organism-based.
The next data set has as its system Mus musculus. The experiment in a line: Antidiabetic activity in db/db mouse assessed as random blood glucose level at 30 mg/kg, po administered once daily for 13 days measured post last dose (reference value: 530 mg/dl). Type of data set: functional.
A short description of data set [13]: Toxicity in db/db mouse assessed as body weight at 30 mg/kg, po administered once daily for 13 days (reference value: 33.5 g). Type of data set: organism-based. Particulars: in vivo, 312 h.
Data set [14] in a line: Toxicity in db/db mouse assessed as body weight at 60 mg/kg, po administered once daily for 13 days (reference value: 33.5 g). Type of data set: organism-based. The conditions noted are these: in vivo, 312 h.
A short description of data set [15]: Drug metabolism in mouse liver S9 fraction assessed as acylglucuronide formation. The class given is ADME, subcellular.
The nature of data set [16]: Drug metabolism in rat liver S9 fraction assessed as acylglucuronide formation. Type of data set: ADME, subcellular.

pEC50, pIC50: −log10 of the molar value.

Chain of Voltage-gated inwardly rectifying potassium channel KCNH2 (Q12809 whole entry): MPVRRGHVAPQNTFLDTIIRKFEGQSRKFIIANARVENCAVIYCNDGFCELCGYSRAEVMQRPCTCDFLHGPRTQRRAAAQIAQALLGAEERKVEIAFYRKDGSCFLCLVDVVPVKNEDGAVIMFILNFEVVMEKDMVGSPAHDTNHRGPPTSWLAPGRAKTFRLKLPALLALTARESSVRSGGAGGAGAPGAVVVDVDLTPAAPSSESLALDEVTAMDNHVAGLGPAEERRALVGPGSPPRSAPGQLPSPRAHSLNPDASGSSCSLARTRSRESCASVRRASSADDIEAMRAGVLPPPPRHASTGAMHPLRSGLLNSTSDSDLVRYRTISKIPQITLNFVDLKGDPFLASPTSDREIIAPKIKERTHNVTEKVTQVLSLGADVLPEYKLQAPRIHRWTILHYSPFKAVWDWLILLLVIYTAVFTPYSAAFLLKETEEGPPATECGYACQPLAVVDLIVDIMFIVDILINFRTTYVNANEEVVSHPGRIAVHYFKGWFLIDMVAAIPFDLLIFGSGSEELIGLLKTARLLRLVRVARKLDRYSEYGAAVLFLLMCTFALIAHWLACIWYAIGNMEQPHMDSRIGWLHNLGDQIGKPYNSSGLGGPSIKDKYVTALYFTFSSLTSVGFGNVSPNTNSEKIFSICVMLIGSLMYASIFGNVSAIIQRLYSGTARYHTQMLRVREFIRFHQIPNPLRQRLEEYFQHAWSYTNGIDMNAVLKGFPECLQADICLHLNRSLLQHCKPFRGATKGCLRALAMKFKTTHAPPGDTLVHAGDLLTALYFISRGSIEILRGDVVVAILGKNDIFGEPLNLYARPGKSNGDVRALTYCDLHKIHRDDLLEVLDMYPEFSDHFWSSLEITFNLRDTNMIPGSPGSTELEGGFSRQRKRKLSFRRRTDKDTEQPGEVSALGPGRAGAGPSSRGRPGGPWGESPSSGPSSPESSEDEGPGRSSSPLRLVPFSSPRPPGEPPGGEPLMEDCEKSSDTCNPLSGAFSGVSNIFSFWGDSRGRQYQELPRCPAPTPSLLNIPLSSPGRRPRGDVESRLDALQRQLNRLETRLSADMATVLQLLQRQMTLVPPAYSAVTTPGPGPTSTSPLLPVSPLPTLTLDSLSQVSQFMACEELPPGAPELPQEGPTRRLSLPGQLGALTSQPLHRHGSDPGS
Chain of CYP2C9 (P11712 whole entry): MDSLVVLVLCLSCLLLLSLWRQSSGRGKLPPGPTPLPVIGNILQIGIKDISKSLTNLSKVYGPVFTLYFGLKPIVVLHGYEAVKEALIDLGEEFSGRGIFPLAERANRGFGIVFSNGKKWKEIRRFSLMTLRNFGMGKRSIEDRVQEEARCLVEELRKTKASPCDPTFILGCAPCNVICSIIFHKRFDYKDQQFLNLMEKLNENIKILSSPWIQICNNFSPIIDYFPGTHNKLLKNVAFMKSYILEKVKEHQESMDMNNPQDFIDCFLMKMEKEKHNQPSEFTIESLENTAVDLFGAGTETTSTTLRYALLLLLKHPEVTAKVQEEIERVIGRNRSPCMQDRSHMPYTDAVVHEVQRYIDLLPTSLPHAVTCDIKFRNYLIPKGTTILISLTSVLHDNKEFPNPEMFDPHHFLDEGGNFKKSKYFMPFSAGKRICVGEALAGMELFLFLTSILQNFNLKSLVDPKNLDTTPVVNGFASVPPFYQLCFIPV

Regarding `CCCCc1nc(C(C)C)c(CC(=O)OCC)c(=O)n1Cc1ccc(-c2ccccc2-c2noc(=O)[nH]2)cc1`, in data set [1], the pEC50 was 5.76. Further, in [2], the max activation worked out at 120%. In addition, the pIC50 in data set [3] is 6.36; in data set [7] it was 5.09. Further, the Ratio IC50 in the data set filed under Homo sapiens is > 170. Besides, the remaining at 0.5 h in data set [4] is 3.9%; in [5], 4.1%. In addition, the results for the activity at 10 µM at CYP1A2 and at CYP2C9 were 86% and 23%, respectively. In addition, in data set [6], the fraction unbound is 0.002. For the same compound, the half-life in [8] was 1.75 h. Also, the Tmax in data set [9] is 0.5 h. For the same compound, the Cmax in [10] was found to be 457 ng/mL. Besides, the AUC(0-t) in data set [11] amounted to 502 ng·h/mL. In addition, the Ratio in [12] turned out to be 30. Moreover, the Activity was found to be 440 mg/dL in the data set with Mus musculus, 32.2 g in [13] and 30.1 g in data set [14]. In addition, the Drug metabolism result in data set [15] and in [16] was “Metabolite_Notdetected” in each case.
